According to publication PMC4249827, “A Novel CMKLR1 Small Molecule Antagonist Suppresses CNS Autoimmune Inflammatory Disease” (PLoS ONE, 2014):
Counter-ions that a name gives are not always drawn.

Experiments:
[1] = literature statement; cited from earlier work
huCMKLR1 [2] = target: T1, huCMKLR1 (Homo sapiens, UniProt Q99788); assay: β-arrestin2 (β-ARR2) enzymatic complementation assay, CMKLR1/CHO cells; assay type: cell-based; set-up: host or cells: CHO; conditions: for IC50: mean±SEM, n = 3-14 independent experiments, read-out: IC50 (µM), β-arrestin, huCMKLR1
T1 sequence (Q99788 1-373): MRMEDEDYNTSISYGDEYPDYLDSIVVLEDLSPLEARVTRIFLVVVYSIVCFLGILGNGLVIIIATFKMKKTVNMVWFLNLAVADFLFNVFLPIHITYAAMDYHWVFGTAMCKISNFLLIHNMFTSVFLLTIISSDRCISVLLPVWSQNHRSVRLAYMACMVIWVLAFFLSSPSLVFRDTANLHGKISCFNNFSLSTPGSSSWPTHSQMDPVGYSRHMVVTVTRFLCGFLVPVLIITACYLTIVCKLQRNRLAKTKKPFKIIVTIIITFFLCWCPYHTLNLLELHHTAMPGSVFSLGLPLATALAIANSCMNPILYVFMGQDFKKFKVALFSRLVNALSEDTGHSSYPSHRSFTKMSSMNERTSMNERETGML
Source text: The engagement of a chemoattractant receptor by its cognate ligand stimulates the recruitment of β-arrestin to the carboxyl-terminus of the receptor, an event that results in receptor internalization and termination of G protein-mediated signaling. […] To test this, we used an enzymatic complementation assay (the β-ARR2 assay), whereby the complementary fragments from the β-gal active site are fused to the carboxyl-terminus of CMKLR1 and β-arrestin2. The special association of these molecules leads to enzyme activity, which is detected by a chemiluminescent substrate.

huCMKLR1 [3] = target: T1, huCMKLR1; assay: Transwell chemotaxis of huCMKLR1/L1.2 transfectants to chemerin
mCMKLR1 = target: T2, mCMKLR1 (Mus musculus, UniProt P97468); assay: Transwell chemotaxis of mCMKLR1/L1.2 transfectants to chemerin
T2 sequence (P97468 1-371): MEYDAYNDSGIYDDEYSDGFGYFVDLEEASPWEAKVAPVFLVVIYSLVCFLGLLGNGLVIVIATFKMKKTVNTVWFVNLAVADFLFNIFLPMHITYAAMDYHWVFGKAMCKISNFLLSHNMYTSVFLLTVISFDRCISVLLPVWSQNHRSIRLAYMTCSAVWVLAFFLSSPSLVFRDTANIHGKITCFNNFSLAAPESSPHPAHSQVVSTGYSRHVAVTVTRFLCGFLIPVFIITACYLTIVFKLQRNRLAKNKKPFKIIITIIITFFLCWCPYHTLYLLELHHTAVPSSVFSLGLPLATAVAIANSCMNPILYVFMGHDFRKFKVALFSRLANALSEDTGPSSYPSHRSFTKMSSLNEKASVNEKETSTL

[4] = system: Choline acetyltransferase; conditions: cited from earlier work

| IC50 (huCMKLR1 [2]) [µM] | inhibitory activity in the in vitro assays (huCMKLR1 [2]; β-ARR2 and transwell migration assays) | IC50 (huCMKLR1 [3]) [µM] | IC50 (mCMKLR1) [µM] | fold less potent than α-NETA (huCMKLR1 [2]; chemerin-stimulated β-ARR2 association with CMKLR1 or CMKLR1+ cell migration) | Structure (SMILES) | bound by serum proteins [1] [%] | fold less potent than α-NETA in inhibiting ChAT enzyme activity [4] [fold] |
| --- | --- | --- | --- | --- | --- | --- | --- |
| – | – | – | – | – | COC(=O)/C=C/C(=O)O [monomethyl fumarate] | 30 | – |
| > 10 | no inhibitory activity | > 100 | > 100 | – | c1ccc2ccccc2c1 [naphthalene, reference compound] | – | – |
| 7.5 ± 0.74 | – | 77 ± 23 | 78 ± 22 | 10–20 fold | CN(C)CCC(=O)c1cccc2ccccc12 [α-NEDA, 2-(α-naphthoyl)ethyldimethylamine] | – | 7 |
